# From ChEMBL document CHEMBL5260811, “Drug development against tuberculosis: Impact of alkaloids” (Eur J Med Chem, 2017)
# Assays:
# [1] = test system: Mycobacterium tuberculosis; assay: Antimycobacterial activity against Mycobacterium tuberculosis; assay type: functional; details: Mycobacterium tuberculosis
# [2] = test system: Mycobacterium tuberculosis; assay: Antimycobacterial activity against Mycobacterium tuberculosis H37Rv by microplate alamar blue assay; assay type: functional
# [3] = test system: Mycobacterium tuberculosis; assay: Antimycobacterial activity against Mycobacterium tuberculosis H37Rv; assay type: functional
# [4] = test system: Mycolicibacterium smegmatis; assay: Antimycobacterial activity against Mycobacterium smegmatis; assay type: functional; details: for MIC: Mycolicibacterium smegmatis
# Mycobacterium sp. = assay: Antimycobacterial activity against Mycobacterium sp.; assay type: functional
# [5] = test system: Mycolicibacterium fortuitum; assay: Antimycobacterial activity against Mycobacterium fortuitum; assay type: functional
# Mycolicibacterium vaccae = assay: Antimycobacterial activity against Mycobacterium vaccae; assay type: functional
# [6] = test system: Mycobacterium intracellulare; assay: Antimycobacterial activity against Mycobacterium intracellulare; assay type: functional, organism-based
# [7] = test system: Mycobacterium tuberculosis; assay: Antimycobacterial activity against Mycobacterium tuberculosis H37Ra; assay type: functional
# Mycolicibacterium phlei = assay: Antimycobacterial activity against Mycobacterium phlei; assay type: functional
# [8] = test system: Mycobacterium tuberculosis; assay: Antimycobacterial activity against Mycobacterium tuberculosis H37Rv at 50 ug/ml relative to control; assay type: functional
# Mycobacterium = assay: Antimycobacterial activity against Mycobacterium; assay type: functional
# Mycobacterium kansasii = assay: Antimycobacterial activity against Mycobacterium kansasii; assay type: functional
# Mycobacterium avium [9] = assay: Antimycobacterial activity against Mycobacterium avium; assay type: functional
# [10] = test system: Mycobacterium tuberculosis; assay: Antimycobacterial activity against Mycobacterium tuberculosis H37Ra by green fluorescent protein microplate assay; assay type: functional
# [11] = test system: Mycobacterium tuberculosis; assay: Antimycobacterial activity against Mycobacterium tuberculosis Rv3547; assay type: functional
# [12] = test system: Mycobacterium tuberculosis; assay: Antimycobacterial activity against MDR/XDR Mycobacterium tuberculosis; assay type: functional
# [13] = test system: Mycobacterium tuberculosis; assay: Antimycobacterial activity against Mycobacterium tuberculosis rv0678; assay type: functional
# [14] = test system: Mycobacterium tuberculosis; assay: Antimycobacterial activity against Mycobacterium tuberculosis in presence of isoniazid; assay type: functional
# [15] = test system: Mycobacterium tuberculosis; assay: Antimycobacterial activity against Mycobacterium tuberculosis in presence of ethambutol; assay type: functional
# [16] = test system: Mycobacterium tuberculosis; assay: Antimycobacterial activity against Mycobacterium tuberculosis in presence of banegasine; assay type: functional
# Mycobacterium avium [17] = assay: Antimycobacterial activity against Mycobacterium avium in presence of banegasine; assay type: functional
# [18] = test system: Mycolicibacterium smegmatis; assay: Antimycobacterial activity against Mycobacterium smegmatis in presence of banegasine; assay type: functional
structure (smiles),measurement,setting,value
O=Cc1ccc2[nH]c3ccccc3c2c1,MIC,[1],100 µg/mL
same,MIC,[2],42.3 µg/mL
CC1=CCC[C@H](C)[C@@]1(C)CC/C(C)=C/CC/C(C)=C/Cn1c[n+](C)c2ncnc(N)c21,MIC,[3],3.13 µg/mL
C1=C\CCCCN2C[C@H]3CCCC/C=C\CCCCN4CC[C@@H]([C@H](CCCCCC/1)C4)[C@H](C3)C2,IC,[4],2.5 µg/mL
COc1ccc2[nH]c3ccc(C=O)cc3c2c1,MIC,[2],15.6 µg/mL
COc1cnc2c3c(nccc13)C(=O)c1ccccc1-2,MIC,Mycobacterium sp.,1.56 µg/mL
c1ccc2c(c1)CC1NCCc3cc4c(c-2c31)OCO4 (stereo unspecified),MIC,Mycobacterium sp.,12 µg/mL
CCCCCCc1cc(Cl)c(O)c(C(=O)c2c[nH]c(Cl)c2Cl)c1O,MIC,[5],0.05 µg/mL
same,MIC,[4],0.05 µg/mL
same,MIC,Mycolicibacterium vaccae,0.05 µg/mL
Oc1cccc2c1[nH]c1c(C3=C[C@@]4(O)CC/C=C\CCCCN5CCC3[C@]3(C[C@@H]6/C=C\CCCCN6[C@H]34)C5)nccc12 (stereo partly specified),MIC,[3],0.4 µg/mL
same,IC50,[6],3.5 µg/mL
CC[C@H]1C=CCC[C@@]2(C[C@@H]3CC[C@@H]4[C@H](C(=O)OCCCCCCCCCCCCCCCC(=O)N(CCCN)CC(O)CCN)[C@]5(CCC[C@@H](C)O5)N=C(N2)N34)O1 (stereo partly specified),MIC,[2],46.5 µg/mL
C1=C\CCCC[C@@H]2CN3CCCC/C=C\CCCC[C@H]4C[C@H](CN(CCCCCC/1)C4)[C@H]2CC3,IC,[4],1 µg/mL
O=C1CCCN2[C@@H](CC1)C[C@]13CN4CCCC/C=C\CC[C@](O)(C=C(c5nccc6c5[nH]c5c(O)cccc56)[C@@H]1CC4)[C@H]23,MIC,[3],0.4 µg/mL
same,IC50,[6],3.5 µg/mL
CC[C@H]1C[C@H]2C[N@]3CCc4c([nH]c5ccc(OC)cc45)[C@](C(=O)OC)(C2)[C@H]13,MIC,Mycobacterium sp.,50 µg/mL
COc1ccc2c(c1)[nH]c1cc(O)c(C=O)cc12,MIC,[1],100 µg/mL
same,MIC,[7],25 µg/mL
O=C1C=CC2=NC=CC3c4ccccc4N1C23 (stereo unspecified),MIC,[4],8 µg/mL
same,MIC,Mycolicibacterium phlei,8 µg/mL
C/C=C1\CN2CC[C@@H]1[C@](CO)(C(=O)OC)c1[nH]c3ccccc3c1C2,inhibition at 50 µg/mL,[8],50%
CC[C@H]1C[C@H]2C[C@H]3c4[nH]c5ccc(OC)cc5c4CCN(C2)C13,MIC,Mycobacterium sp.,50 µg/mL
COC1=C(Br)[C@@H](O)[C@]2(C=C1Br)CC(C(=O)NC[C@@H](O)COc1c(Br)cc(C(O)CNC(=O)C3=NO[C@@]4(C=C(Br)C(OC)=C(Br)[C@H]4O)C3)cc1Br)=CO2 (stereo partly specified),MIC,Mycobacterium,7.9 µg/mL
COc1ccc2[nH]c3cc(O)c(C=O)cc3c2c1,MIC,[2],14.3 µg/mL
CC/C=C(\C)C[C@H](C)C[C@H](C)/C(O)=C1/C(=O)N[C@@H]([C@@H](O)c2ccc(O)cc2)C1=O,MIC,Mycolicibacterium vaccae,6.25 µg/mL
CC(C)=CCOc1ccc(C2=C(Cc3ccccc3)C(=O)N(O)C2=O)cc1,MIC,Mycolicibacterium phlei,25 µg/mL
c1cncc(-c2ncc(-c3ccc4c(c3)OCO4)o2)c1,MIC,Mycobacterium kansasii,25 µg/mL
same,MIC,[1],25 µg/mL
same,MIC,Mycobacterium avium [9],25 µg/mL
O=C([C@H]1[C@H](/C=C/c2ccc3c(c2)OCO3)[C@H](c2ccc3c(c2)OCO3)C=C[C@H]1C(=O)N1CCCCC1)N1CCCCC1,MIC,[7],12.5 µg/mL
COC(=O)c1cc2c(o1)-c1nccc3c1c(nc1ccccc13)C2=O,MIC,Mycobacterium,0.61 µM
CS1(C2=CC(=O)C3=C(C2)c2nccc4cccc(c24)N3)CCC(=O)OC1 (stereo unspecified),MIC,Mycobacterium,2.1 µM
CCCCCCCCC[C@@H]1C[C@@H]2CC[C@H]3[C@@H](C(=O)O[C@H](C)CCCCCCC[C@@H]4C[C@@H]5CC[C@@H]6C[C@H](C)NC(=N4)N65)[C@@H](C)N=C(N1)N23,MIC,[2],3.18 µg/mL
O=Cc1cc2c3ccc(O)cc3[nH]c2c2ccoc12,MIC,[10],25 µg/mL
OC1CCCC/C=C\CCCC[C@@H]2CN3CCCC/C=C\CCCC[C@H]4C[C@H](CN(C1)C4)[C@H]2CC3 (stereo partly specified),IC,[4],12.5 µg/mL
COC(=O)[C@@]12COCC=C3CN(CC[C@@H]31)Cc1c2[nH]c2ccccc12,inhibition at 50 µg/mL,[8],50%
Oc1ccc2c(c1)CC1NCCc3cc4c(c-2c31)OCO4 (stereo unspecified),MIC,Mycobacterium sp.,6 µg/mL
C=C1CC[C@@]2(C#N)[C@H]3[C@H](CC[C@@H]2C)[C@@H](C)C[C@@H](CC(C)(C)C)[C@H]13,MIC,[3],2 µg/mL
COC1=C(Br)[C@@H](O)[C@]2(C=C1Br)CC(C(=O)NCCCOc1c(Br)cc(C(O)CNC(=O)C3=NO[C@@]4(C=C(Br)C(OC)=C(Br)[C@H]4O)C3)cc1Br)=CO2 (stereo partly specified),MIC,Mycobacterium,8 µg/mL
O=C1C=CC2=NC=CC3c4cccc(O)c4N1C23 (stereo unspecified),MIC,[4],8 µg/mL
same,MIC,Mycolicibacterium phlei,8 µg/mL
C=C(c1cc2ccccc2[nH]1)[C@H]1CCN(C)C/C1=C\CO,inhibition at 50 µg/mL,[8],50%
CC/C=C(\C)C[C@H](C)C[C@H](C)/C(O)=C1/C(=O)N[C@@H](Cc2ccc(O)cc2)C1=O,MIC,Mycolicibacterium vaccae,6.25 µg/mL
C=C1CC[C@@]2(C#N)[C@H]3[C@H](CC[C@@H]2C)[C@@H](C)C[C@@H](CC(C)(C)NC(=O)CN2CCC2=O)[C@H]13,MIC,[3],15.3 µg/mL
COC(=O)c1cc2c(s1)-c1nccc3c1c(nc1ccccc13)C2=O,MIC,Mycobacterium,0.58 µM
C[C@@]1(COc2ccc(N3CCC(Oc4ccc(OC(F)(F)F)cc4)CC3)cc2)Cn2cc([N+](=O)[O-])nc2O1,MIC,[11],0.006 µg/mL
CC[C@H]1CN(C)[C@H]2Cc3c([nH]c4ccccc34)C(=O)C[C@@H]1[C@@H]2C(=O)OC,MIC,Mycobacterium sp.,128 µg/mL
COc1ccc2c(c1)CC1NCCc3cc4c(c-2c31)OCO4 (stereo unspecified),MIC,Mycobacterium sp.,12 µg/mL
Nc1ccccc1-c1c[nH]c(C(=O)O)c1,MIC,[4],0.5 µg/mL
COC(=O)[C@@]12COCC=C3C[N+]([O-])(CC[C@@H]31)Cc1c2[nH]c2ccccc12,inhibition at 50 µg/mL,[8],50%
CC[C@@H]1[C@@H]2CCN3CC[C@@]4(C(=C2C(=O)OC)Nc2ccccc24)[C@@H]13,inhibition at 50 µg/mL,[8],50%
"COC(=O)[C@@]1(c2cc3ccccc3[nH]2)COCC=C2CN(C)CC[C@@H]21 [6,7-SECO-ANGUSTILOBINE B]",inhibition at 50 µg/mL,[8],50%
CC(C)=CCc1c(O)c(C=O)cc2c1[nH]c1cc(O)ccc12 [7-HYDROXYHEPTAPHYLLINE],MIC,[10],25 µg/mL
COc1ccc2c3c(c4cc(OC)c(OC)cc4c2c1)CN1CCCC1C3 (stereo not drawn) [(+/-)-DEOXYTYLOPHORININE],MIC,[12],6.25 µg/mL
COc1ccc2cc3[n+](cc2c1OC)CCc1cc2c(cc1-3)OCO2.[Cl-] [BERBERINE CHLORIDE],MIC,[1],25 µg/mL
same,MIC,[4],0.78 µg/mL
same,MIC,[6],0.78 µg/mL
Cc1ccnc2c1C(=O)c1ccccc1C2=O [CLEISTOPHOLINE],MIC,Mycobacterium sp.,12.5 µg/mL
CC(C)/N=c1\cc2n(-c3ccc(Cl)cc3)c3ccccc3nc-2cc1Nc1ccc(Cl)cc1 [CLOFAZIMINE],MIC,[13],0.12 µg/mL
N[C@@H]1CONC1=O [CYCLOSERINE],MIC,[5],3.12 µg/mL
same,MIC,[1],3.12 µg/mL
same,MIC,Mycobacterium avium [9],3.12 µg/mL
same,MIC,[4],3.12 µg/mL
same,MIC,[3],12.5 µg/mL
COc1c(O)ccc2c1cnc1c3cc4c(cc3ccc21)OCO4 [DECARINE],MIC,[3],3.1 µg/mL
CC[C@@H](CO)NCCN[C@@H](CC)CO [ETHAMBUTOL],MIC,[3],5.61 µg/mL
COc1ccc2cc1Oc1ccc(cc1)C[C@H]1c3cc(c(OC)cc3CCN1C)Oc1c(OC)c(OC)cc3c1[C@H](C2)N(C)CC3 [FANCHININ],MIC,[14],0.25 µg/mL
same,MIC,[15],0.25 µg/mL
C=C[C@H]1C=C[C@H]2[C@@H]3C[C@H](C)CC[C@H]3[C@@H]3Oc4ccc(cc4)C[C@]4(O)NC(=O)[C@H](C(=O)[C@@H]1[C@H]23)C4N1C(=O)[C@H]2C(=O)[C@H]3[C@@H](C=C)C=C[C@H]4[C@@H]5C[C@H](C)CC[C@H]5[C@H](Oc5ccc(cc5)C[C@@H]2C1=O)[C@@H]43 (stereo partly specified) [HIRSUTELLONE F],MIC,[2],3.12 µg/mL
COc1cc2c(cc1O)CC[n+]1cc3c(OC)c(OC)ccc3cc1-2 [JATRORRHIZINE],MIC,Mycobacterium sp.,< 100 µg/mL
CC(C)=CCc1c(O)ccc2[nH]c3ccc(C=O)cc3c12 [MICROMELINE],MIC,[2],31.5 µg/mL
O=C(/C=C/C=C/c1ccc2c(c1)OCO2)N1CCCCC1 [PIPERINE],MIC,[4],128 µg/mL
O=[N+]([O-])c1c(Cl)cccc1-c1c[nH]cc1Cl [PYRROLNITRIN],MIC,[1],4 µg/mL
same,MIC,Mycobacterium avium [9],4 µg/mL
same,MIC,[4],4 µg/mL
same,IC,[16],0.075 µg/mL
same,IC,Mycobacterium avium [17],0.075 µg/mL
same,IC,[18],0.075 µg/mL
O=C1c2ccccc2-c2nccc3ccnc1c23 [SAMPANGINE],MIC,Mycobacterium sp.,0.78 µg/mL
O=CNCCCCC(NC(=O)C1COC(c2ccccc2O)=N1)C(=O)O (stereo unspecified) [TRANSVALENCIN Z],MIC,[4],0.125 µg/mL
